Reference: patent publication US20110250135A1, “Piperazine Derivatives for Binding and Imaging Amyloid Plaques and Their Use” (Bayer Schering Pharma Aktiengesellschaft, priority 2008, published 2011)

Experiments:
Aβ plaques = target: T1, Aβ plaques (Homo sapiens, UniProt P05067); assay: Autoradiographical analysis of binding to cryosections from cortex of AD patients and controls; settings: F-18 labeled compound; Alzheimer's disease patients (AD) vs controls without Aβ plaques
T1 construct: controls without Aβ plaques; from tissue; host or cells: frontal lobe / cortex sections (frozen and paraffin) from AD patients, FTD patients and age-matched controls
T1 sequence (P05067 672-713 limits assumed): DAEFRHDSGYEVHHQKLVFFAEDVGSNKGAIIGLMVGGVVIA
Excerpt: Fresh frozen as well as paraffin embedded sections of the frontal lobe from Alzheimer's dementia patients, frontotemporal dementia patients and age matched controls were used for the study. Frozen sections, sliced at 18 μm thickness on a cryostate (Leica, Germany) and paraffin sections, sliced on a sliding microtom (Leica) at a thickness of 6 μm, were mounted onto glass slides (Superfrost Plus, Fa.Menzel, Braunschweig Germany). Frozen sections were allowed to adhere to the slides for several nights at −20° C. The paraffin sections were deparaffinized using routine histological methods. For binding studies sections were incubated with the F-18 labeled test compound at 10 Bq/μl diluted in 25 mM Hepes buffer, pH 7.4, 0.1% (BSA) (200-300 μl/slide) for 1.5 hour at room temperature in a humidified chamber. For blocking experiments a 1000-fold access of the unlabeled test substance was added to the incubation mixture. After hybridization, sections were washed four times with Hepes buffer, 0.1% BSA (or alternatively two times with 40% ethanol) and finally dipped two times into dest. water for 10 sec. The air-dried sections were exposed to imaging plates and signals were detected by a phosphoimager device (Fuji BAS5000).

[1] = Biodistribution: organ distribution of F-18 signal in mice; format: in vivo, male NMRI mice; settings: for Organ distribution of F-18 signal, intestine: intestine (with content); for Organ distribution of F-18 signal, stomach: stomach (without content)
Procedure: Biodistribution and excretion studies were performed in male NMRI mice (body weight app. 30g; 3 animals per time point). The animals were kept under normal laboratory conditions at a temperature of 22±2° C. and a dark/light rhythm of 12 hours. Food and water were provided ad libitium. During an acclimation period of at least 3 days before the beginning of the study animals were clinically examined to ascertain the absence of abnormal clinical signs. At 2, 5, 30, 60, 240 min post intravenous injection via the tail vein of ca. 150 kBq in 100 μl of the test compound, urine and feces were quantitatively collected. At the same time points, animals were sacrificed by decapitation and under isoflurane anaesthesia and the following organs and tissues were removed for the determination of radioactivity using a gamma-counter: spleen, liver, kidney, lung, femur, heart, brain, fat, thyroid, muscle, skin, blood, tail, stomach (without content), testicle, intestine (with content), pancreas, adrenals, and the remaining body. For analysis the decay corrected percentage of the injected dose per tissue weight (% ID/g±standard deviation) was calculated.

With O=C(NCC(=O)N1CCN(c2ccc(OCc3ccccc3)cc2)CC1)c1ccnc([18F])c1 [Example 11c, N-{2-[4-(4-Benzyloxy-phenyl)-piperazin-1-yl]-2-oxoethyl}-2-[F-18]-fluoro-isonicotinamide] the “autoradiographical analysis of binding to cryosections from cortex” value (Aβ plaques) was “Specific binding in plaque-rich regions of AD samples”, the “Organ distribution of F-18 signal, adrenals” value (“Organ distribution … adrenals” below) ([1]; 2 min post i.v. injection) was 9.24 % ID/g and the “Organ distribution … adrenals” value ([1]; 5 min post i.v. injection) was 5.60 % ID/g. For the same compound, the “Organ distribution … adrenals” value ([1]; 30 min post i.v. injection) was 2.41 % ID/g, the “Organ distribution … adrenals” value ([1]; 60 min post i.v. injection) was 2.45 % ID/g and the “Organ distribution … adrenals” value ([1]; 240 min post i.v. injection) was 0.30 % ID/g. For the same compound, the “Organ distribution of F-18 signal, blood” value ([1]; 2 min post i.v. injection) was 1.70 % ID/g, the “Organ distribution of F-18 signal, blood” value ([1]; 5 min post i.v. injection) was 1.78 % ID/g and the “Organ distribution of F-18 signal, blood” value ([1]; 30 min post i.v. injection) was 1.13 % ID/g. The “Organ distribution of F-18 signal, blood” value ([1]; 60 min post i.v. injection) was 0.49 % ID/g, the “Organ distribution of F-18 signal, blood” value ([1]; 240 min post i.v. injection) was 0.12 % ID/g and the “Organ distribution of F-18 signal, brain” value ([1]; 2 min post i.v. injection) was 5.54 % ID/g. The “Organ distribution of F-18 signal, brain” value ([1]; 5 min post i.v. injection) was 4.73 % ID/g, the “Organ distribution of F-18 signal, brain” value ([1]; 30 min post i.v. injection) was 1.00 % ID/g and the “Organ distribution of F-18 signal, brain” value ([1]; 60 min post i.v. injection) was 0.34 % ID/g. The “Organ distribution of F-18 signal, brain” value ([1]; 240 min post i.v. injection) was 0.05 % ID/g, the “Organ distribution of F-18 signal, fat” value ([1]; 2 min post i.v. injection) was 1.52 % ID/g and the “Organ distribution of F-18 signal, fat” value ([1]; 5 min post i.v. injection) was 1.84 % ID/g. For the same compound, the “Organ distribution of F-18 signal, fat” value ([1]; 30 min post i.v. injection) was 1.94 % ID/g, the “Organ distribution of F-18 signal, fat” value ([1]; 60 min post i.v. injection) was 0.80 % ID/g and the “Organ distribution of F-18 signal, fat” value ([1]; 240 min post i.v. injection) was 0.08 % ID/g. The “Organ distribution of F-18 signal, femur” value ([1]; 2 min post i.v. injection) was 1.53 % ID/g, the “Organ distribution of F-18 signal, femur” value ([1]; 5 min post i.v. injection) was 1.54 % ID/g and the “Organ distribution of F-18 signal, femur” value ([1]; 30 min post i.v. injection) was 0.68 % ID/g. The “Organ distribution of F-18 signal, femur” value ([1]; 60 min post i.v. injection) was 0.38 % ID/g, the “Organ distribution of F-18 signal, femur” value ([1]; 240 min post i.v. injection) was 0.16 % ID/g and the “Organ distribution of F-18 signal, heart” value ([1]; 2 min post i.v. injection) was 4.68 % ID/g. For the same compound, the “Organ distribution of F-18 signal, heart” value ([1]; 5 min post i.v. injection) was 4.36 % ID/g, the “Organ distribution of F-18 signal, heart” value ([1]; 30 min post i.v. injection) was 1.54 % ID/g and the “Organ distribution of F-18 signal, heart” value ([1]; 60 min post i.v. injection) was 0.54 % ID/g. For the same compound, the “Organ distribution of F-18 signal, heart” value ([1]; 240 min post i.v. injection) was 0.13 % ID/g, the “Organ distribution of F-18 signal, intestine” value (shortened to “Organ distribution … intestine”) ([1]; 2 min post i.v. injection) was 2.14 % ID/g and the “Organ distribution … intestine” value ([1]; 5 min post i.v. injection) was 2.66 % ID/g. The “Organ distribution … intestine” value ([1]; 30 min post i.v. injection) was 10.01 % ID/g, the “Organ distribution … intestine” value ([1]; 60 min post i.v. injection) was 14.79 % ID/g and the “Organ distribution … intestine” value ([1]; 240 min post i.v. injection) was 13.00 % ID/g. The “Organ distribution of F-18 signal, kidney” value (from here on “Organ distribution … kidney”) ([1]; 2 min post i.v. injection) was 7.68 % ID/g, the “Organ distribution … kidney” value ([1]; 5 min post i.v. injection) was 8.07 % ID/g and the “Organ distribution … kidney” value ([1]; 30 min post i.v. injection) was 7.83 % ID/g. For the same compound, the “Organ distribution … kidney” value ([1]; 60 min post i.v. injection) was 4.37 % ID/g, the “Organ distribution … kidney” value ([1]; 240 min post i.v. injection) was 1.12 % ID/g and the “Organ distribution of F-18 signal, liver” value ([1]; 2 min post i.v. injection) was 7.17 % ID/g. The “Organ distribution of F-18 signal, liver” value ([1]; 5 min post i.v. injection) was 12.14 % ID/g, the “Organ distribution of F-18 signal, liver” value ([1]; 30 min post i.v. injection) was 9.41 % ID/g and the “Organ distribution of F-18 signal, liver” value ([1]; 60 min post i.v. injection) was 4.72 % ID/g. The “Organ distribution of F-18 signal, liver” value ([1]; 240 min post i.v. injection) was 2.09 % ID/g, the “Organ distribution of F-18 signal, lung” value ([1]; 2 min post i.v. injection) was 4.14 % ID/g and the “Organ distribution of F-18 signal, lung” value ([1]; 5 min post i.v. injection) was 3.76 % ID/g. The “Organ distribution of F-18 signal, lung” value ([1]; 30 min post i.v. injection) was 1.65 % ID/g, the “Organ distribution of F-18 signal, lung” value ([1]; 60 min post i.v. injection) was 0.69 % ID/g and the “Organ distribution of F-18 signal, lung” value ([1]; 240 min post i.v. injection) was 0.31 % ID/g. The “Organ distribution of F-18 signal, muscle” value (from here on “Organ distribution … muscle”) ([1]; 2 min post i.v. injection) was 2.38 % ID/g, the “Organ distribution … muscle” value ([1]; 5 min post i.v. injection) was 2.54 % ID/g and the “Organ distribution … muscle” value ([1]; 30 min post i.v. injection) was 1.03 % ID/g. For the same compound, the “Organ distribution … muscle” value ([1]; 60 min post i.v. injection) was 0.38 % ID/g, the “Organ distribution … muscle” value ([1]; 240 min post i.v. injection) was 0.07 % ID/g and the “Organ distribution of F-18 signal, pancreas” value (from here on “Organ distribution … pancreas”) ([1]; 2 min post i.v. injection) was 4.44 % ID/g. For the same compound, the “Organ distribution … pancreas” value ([1]; 5 min post i.v. injection) was 3.97 % ID/g, the “Organ distribution … pancreas” value ([1]; 30 min post i.v. injection) was 2.20 % ID/g and the “Organ distribution … pancreas” value ([1]; 60 min post i.v. injection) was 0.77 % ID/g. For the same compound, the “Organ distribution … pancreas” value ([1]; 240 min post i.v. injection) was 0.18 % ID/g, the “Organ distribution of F-18 signal, skin” value ([1]; 2 min post i.v. injection) was 1.22 % ID/g and the “Organ distribution of F-18 signal, skin” value ([1]; 5 min post i.v. injection) was 1.80 % ID/g. For the same compound, the “Organ distribution of F-18 signal, skin” value ([1]; 30 min post i.v. injection) was 1.43 % ID/g, the “Organ distribution of F-18 signal, skin” value ([1]; 60 min post i.v. injection) was 0.66 % ID/g and the “Organ distribution of F-18 signal, skin” value ([1]; 240 min post i.v. injection) was 0.10 % ID/g. The “Organ distribution of F-18 signal, spleen” value (“Organ distribution … spleen” below) ([1]; 2 min post i.v. injection) was 1.47 % ID/g, the “Organ distribution … spleen” value ([1]; 5 min post i.v. injection) was 2.01 % ID/g and the “Organ distribution … spleen” value ([1]; 30 min post i.v. injection) was 0.93 % ID/g. The “Organ distribution … spleen” value ([1]; 60 min post i.v. injection) was 0.37 % ID/g, the “Organ distribution … spleen” value ([1]; 240 min post i.v. injection) was 0.09 % ID/g and the “Organ distribution of F-18 signal, stomach” value (“Organ distribution … stomach” for short) ([1]; 2 min post i.v. injection) was 3.46 % ID/g. For the same compound, the “Organ distribution … stomach” value ([1]; 5 min post i.v. injection) was 3.07 % ID/g, the “Organ distribution … stomach” value ([1]; 30 min post i.v. injection) was 3.10 % ID/g and the “Organ distribution … stomach” value ([1]; 60 min post i.v. injection) was 1.13 % ID/g. For the same compound, the “Organ distribution … stomach” value ([1]; 240 min post i.v. injection) was 0.34 % ID/g, the “Organ distribution of F-18 signal, tail” value ([1]; 2 min post i.v. injection) was 8.55 % ID/g and the “Organ distribution of F-18 signal, tail” value ([1]; 5 min post i.v. injection) was 5.41 % ID/g. For the same compound, the “Organ distribution of F-18 signal, tail” value ([1]; 30 min post i.v. injection) was 3.21 % ID/g, the “Organ distribution of F-18 signal, tail” value ([1]; 60 min post i.v. injection) was 0.87 % ID/g and the “Organ distribution of F-18 signal, tail” value ([1]; 240 min post i.v. injection) was 0.39 % ID/g. The “Organ distribution of F-18 signal, testicle” value (shortened to “Organ distribution … testicle”) ([1]; 2 min post i.v. injection) was 1.36 % ID/g, the “Organ distribution … testicle” value ([1]; 5 min post i.v. injection) was 1.70 % ID/g and the “Organ distribution … testicle” value ([1]; 30 min post i.v. injection) was 1.13 % ID/g. For the same compound, the “Organ distribution … testicle” value ([1]; 60 min post i.v. injection) was 0.65 % ID/g, the “Organ distribution … testicle” value ([1]; 240 min post i.v. injection) was 0.15 % ID/g and the “Organ distribution of F-18 signal, thyroid” value (“Organ distribution … thyroid” for short) ([1]; 2 min post i.v. injection) was 3.11 % ID/g. The “Organ distribution … thyroid” value ([1]; 5 min post i.v. injection) was 2.41 % ID/g, the “Organ distribution … thyroid” value ([1]; 30 min post i.v. injection) was 1.08 % ID/g and the “Organ distribution … thyroid” value ([1]; 60 min post i.v. injection) was 0.50 % ID/g. The “Organ distribution … thyroid” value ([1]; 240 min post i.v. injection) was 0.19 % ID/g.
